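Compound exposure: 48 hours, 5 concentrations, 96-well plates. GI50 marks 50% less growth.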 Active and inactive are the calls of the source. No stated cut-off is given here; in the data, active = GI50 up to about 1.1 µM and inactive = higher.
Experiments:
Experiment in all cases: growth of human tumour cells (NCI), 48 h
NCI/ADR-RES = system: NCI/ADR-RES
IGROV-1 = system: IGROV-1
U-251 = system: U-251
RXF 393 = system: RXF 393
MCF7 = system: MCF7
T47D = system: T47D
NCI-H522 = system: NCI-H522
MDA-MB-435 = system: MDA-MB-435
LOX IMVI = system: LOX IMVI
HCC 2998 = system: HCC 2998
HOP-62 = system: HOP-62
OVCAR-8 = system: OVCAR-8
ACHN = system: ACHN
MDA-N = system: MDA-N
HOP-92 = system: HOP-92
HT-29 = system: HT-29
OVCAR-4 = system: OVCAR-4
SK-OV-3 = system: SK-OV-3
OVCAR-3 = system: OVCAR-3
SK-MEL-28 = system: SK-MEL-28
SF-295 = system: SF-295
OVCAR-5 = system: OVCAR-5
PC-3 = system: PC-3
HL-60 = system: HL-60
RPMI-8226 = system: RPMI-8226
DU-145 = system: DU-145
SW-620 = system: SW-620
EKVX = system: EKVX
COLO 205 = system: COLO 205
Hs-578T = system: Hs-578T
K562 = system: K562
M14 = system: M14
MOLT-4 = system: MOLT-4
SNB-19 = system: SNB-19
Malme-3M = system: Malme-3M
SK-MEL-5 = system: SK-MEL-5
786-0 = system: 786-0
A498 = system: A498
NCI-H23 = system: NCI-H23
HCT-15 = system: HCT-15
A549 = system: A549
CCRF-CEM = system: CCRF-CEM
UACC-62 = system: UACC-62
NCI-H226 = system: NCI-H226
SF-539 = system: SF-539
UACC-257 = system: UACC-257
UO-31 = system: UO-31
NCI-H460 = system: NCI-H460
KM12 = system: KM12
CAKI-1 = system: CAKI-1
SF-268 = system: SF-268
SN12C = system: SN12C
TK-10 = system: TK-10
MDA-MB-231 = system: MDA-MB-231
SK-MEL-2 = system: SK-MEL-2
HCT-116 = system: HCT-116
SNB-75 = system: SNB-75
SR = system: SR

O=c1[nH]nc(-c2ccccc2)n1/N=C/c1c[nH]c2ccccc12
GI50 (NCI/ADR-RES): > 100 µM (inactive)
GI50 (IGROV-1): 69.5 µM (inactive)
GI50 (U-251): > 100 µM (inactive)
GI50 (RXF 393): 98.4 µM (inactive)
GI50 (MCF7): > 100 µM (inactive)
GI50 (T47D): > 100 µM (inactive)
GI50 (NCI-H522): > 100 µM (inactive)
GI50 (MDA-MB-435): 77.1 µM (inactive)
GI50 (LOX IMVI): 58.7 µM (inactive)
GI50 (HCC 2998): > 100 µM (inactive)
GI50 (HOP-62): > 100 µM (inactive)
GI50 (OVCAR-8): 32.7 µM (inactive)
GI50 (ACHN): > 100 µM (inactive)
GI50 (MDA-N): > 100 µM (inactive)
GI50 (HOP-92): > 100 µM (inactive)
GI50 (HT-29): 41 µM (inactive)
GI50 (OVCAR-4): > 100 µM (inactive)
GI50 (SK-OV-3): > 100 µM (inactive)
GI50 (OVCAR-3): > 100 µM (inactive)
GI50 (SK-MEL-28): > 100 µM (inactive)
GI50 (SF-295): > 100 µM (inactive)
GI50 (OVCAR-5): > 100 µM (inactive)
GI50 (PC-3): > 100 µM (inactive)
GI50 (HL-60): > 100 µM (inactive)
GI50 (RPMI-8226): > 100 µM (inactive)
GI50 (DU-145): > 100 µM (inactive)
GI50 (SW-620): > 100 µM (inactive)
GI50 (EKVX): > 100 µM (inactive)
GI50 (COLO 205): > 100 µM (inactive)
GI50 (Hs-578T): > 100 µM (inactive)
GI50 (K562): > 100 µM (inactive)
GI50 (M14): > 100 µM (inactive)
GI50 (MOLT-4): > 100 µM (inactive)
GI50 (SNB-19): > 100 µM (inactive)
GI50 (Malme-3M): > 100 µM (inactive)
GI50 (SK-MEL-5): > 100 µM (inactive)
GI50 (786-0): 56.2 µM (inactive)
GI50 (A498): > 100 µM (inactive)
GI50 (NCI-H23): > 100 µM (inactive)
GI50 (HCT-15): > 100 µM
GI50 (A549): > 100 µM (inactive)
GI50 (CCRF-CEM): > 100 µM (inactive)
GI50 (UACC-62): 96.8 µM (inactive)
GI50 (NCI-H226): > 100 µM (inactive)
GI50 (SF-539): > 100 µM (inactive)
GI50 (UACC-257): > 100 µM (inactive)
GI50 (UO-31): > 100 µM (inactive)
GI50 (NCI-H460): > 100 µM (inactive)
GI50 (KM12): 5 µM (inactive)
GI50 (CAKI-1): > 100 µM (inactive)
GI50 (SF-268): 74.6 µM (inactive)
GI50 (SN12C): > 100 µM (inactive)
GI50 (TK-10): 17.6 µM (inactive)
GI50 (MDA-MB-231): > 100 µM (inactive)
GI50 (SK-MEL-2): > 100 µM (inactive)
GI50 (HCT-116): 42.9 µM (inactive)

CC1CN=C(N(Cc2ccccc2)C(=O)Nc2ccc(Cl)c(Cl)c2)S1 (centres undefined)
GI50 (NCI/ADR-RES): 21.4 µM (inactive)
GI50 (IGROV-1): 32.5 µM (inactive)
GI50 (U-251): 32.4 µM (inactive)
GI50 (MCF7): 52.1 µM (inactive)
GI50 (T47D): 16.9 µM (inactive)
GI50 (LOX IMVI): 21.4 µM (inactive)
GI50 (HCC 2998): > 10 µM (inactive)
GI50 (HOP-62): 87.5 µM (inactive)
GI50 (OVCAR-8): 49.3 µM (inactive)
GI50 (ACHN): 12.6 µM (inactive)
GI50 (MDA-N): 29.6 µM (inactive)
GI50 (HOP-92): 21.6 µM (inactive)
GI50 (HT-29): 30.1 µM (inactive)
GI50 (OVCAR-4): 61.8 µM (inactive)
GI50 (SK-OV-3): 52.4 µM (inactive)
GI50 (OVCAR-3): 50.9 µM (inactive)
GI50 (SK-MEL-28): 26.1 µM (inactive)
GI50 (SF-295): > 10 µM (inactive)
GI50 (OVCAR-5): 29.2 µM (inactive)
GI50 (PC-3): 31.4 µM (inactive)
GI50 (HL-60): > 10 µM (inactive)
GI50 (RPMI-8226): 33.7 µM (inactive)
GI50 (DU-145): 42.7 µM (inactive)
GI50 (SW-620): 43.5 µM (inactive)
GI50 (EKVX): 53.3 µM (inactive)
GI50 (COLO 205): 31.4 µM (inactive)
GI50 (Hs-578T): 53.1 µM (inactive)
GI50 (K562): 21.1 µM (inactive)
GI50 (SNB-75): 35.6 µM (inactive)
GI50 (M14): 18.3 µM (inactive)
GI50 (MOLT-4): > 10 µM (inactive)
GI50 (SNB-19): 62.4 µM (inactive)
GI50 (Malme-3M): 99.3 µM (inactive)
GI50 (SK-MEL-5): 23.3 µM (inactive)
GI50 (786-0): 30.5 µM (inactive)
GI50 (A498): 35.7 µM (inactive)
GI50 (NCI-H23): 43.1 µM (inactive)
GI50 (HCT-15): 15.7 µM
GI50 (SR): 29.1 µM (inactive)
GI50 (A549): 36.9 µM (inactive)
GI50 (CCRF-CEM): > 10 µM (inactive)
GI50 (SF-539): 33.3 µM (inactive)
GI50 (UACC-257): 32.5 µM (inactive)
GI50 (UO-31): 25.8 µM (inactive)
GI50 (NCI-H460): 35.7 µM (inactive)
GI50 (KM12): 40.7 µM (inactive)
GI50 (CAKI-1): 36.1 µM (inactive)
GI50 (SF-268): 62.7 µM (inactive)
GI50 (SN12C): 17.2 µM (inactive)
GI50 (TK-10): 32.4 µM (inactive)
GI50 (MDA-MB-231): 27.2 µM (inactive)
GI50 (SK-MEL-2): 23.4 µM (inactive)
GI50 (HCT-116): 27.7 µM (inactive)

From ChEMBL document CHEMBL1201862, “PubChem BioAssay data set” (2004)
